The NIST ThermoML archive (doi:10.1021/acs.jced.8b00854)
“And” between values parts separate entries of the source, which are not always exact repeats. Equal values may be shown once. ± gives the expanded uncertainty stated by the source.

Key:
[1] = refractive index (Na D-line) (dimensionless); xn = mol fraction of the nth substance listed; conditions: 100 kPa, Liquid, Standard Abbe refractometry, x2 = 0
[2] = xn = mol fraction of the nth substance listed; conditions: 100 kPa, Liquid, Vibrating tube method, x2 = 0
[3] = 100 kPa, Liquid, Vibrating tube method
[4] = refractive index (Na D-line) (dimensionless); conditions: 100 kPa, Liquid, Standard Abbe refractometry

Row | SMILES | refractive index ([1]; 293.15 K) | refractive index ([1]; 303.15 K) | refractive index ([1]; 313.15 K) | refractive index ([1]; 323.15 K) | refractive index ([1]; 333.15 K) | refractive index ([1]; 343.15 K) | mass density ([2]; 323.15 K) | mass density ([2]; 333.15 K) | mass density ([2]; 343.15 K) | mass density ([3]; 323.15 K) | mass density ([3]; 333.15 K) | mass density ([3]; 343.15 K) | refractive index ([4]; 293.15 K) | refractive index ([4]; 303.15 K) | refractive index ([4]; 313.15 K) | refractive index ([4]; 323.15 K) | refractive index ([4]; 333.15 K) | refractive index ([4]; 343.15 K)
1 | O [water] + CCCCCCCC[n+]1ccn(C)c1.F[B-](F)(F)F | 1.3335 ± 0.0016 | 1.3315 ± 0.0016 | 1.3305 ± 0.0016 | 1.329 ± 0.0016 | 1.3275 ± 0.0016 | 1.326 ± 0.0016 | 988.04 ± 2 kg/m3 | 988.04 ± 2 kg/m3 | 972.75 ± 2 kg/m3 |  |  |  |  |  |  |  |  | 
2 | O [water] |  |  |  |  |  |  |  |  |  | 988.04 ± 2 kg/m3 | 981.56 ± 2 kg/m3 and 988.04 ± 2 kg/m3 | 972.75 ± 2 kg/m3 | 1.3335 ± 0.0016 | 1.3315 ± 0.0016 | 1.3305 ± 0.0016 | 1.329 ± 0.0016 | 1.3275 ± 0.0016 | 1.326 ± 0.0016
3 | O [water] + CCCCn1cc[n+](C)c1.O=S(=O)([O-])C(F)(F)F | 1.3335 ± 0.0016 | 1.3315 ± 0.0016 | 1.3305 ± 0.0016 | 1.329 ± 0.0016 | 1.3275 ± 0.0016 | 1.326 ± 0.0016 | 988.04 ± 2 kg/m3 | 981.56 ± 2 kg/m3 | 972.75 ± 2 kg/m3 |  |  |  |  |  |  |  |  | 
4 | O [water] + CCn1cc[n+](C)c1.F[B-](F)(F)F | 1.3335 ± 0.0016 | 1.3315 ± 0.0016 | 1.3305 ± 0.0016 | 1.329 ± 0.0016 | 1.3275 ± 0.0016 | 1.326 ± 0.0016 | 988.04 ± 2 kg/m3 | 981.56 ± 2 kg/m3 | 972.75 ± 2 kg/m3 |  |  |  |  |  |  |  |  | 
5 | O [water] + CCn1cc[n+](C)c1.O=S(=O)([O-])C(F)(F)F | 1.3335 ± 0.0016 | 1.3315 ± 0.0016 | 1.3305 ± 0.0016 | 1.329 ± 0.0016 | 1.3275 ± 0.0016 | 1.326 ± 0.0016 | 988.04 ± 2 kg/m3 | 981.56 ± 2 kg/m3 | 972.75 ± 2 kg/m3 |  |  |  |  |  |  |  |  | 
6 | O [water] + CCCCCCn1cc[n+](C)c1.F[B-](F)(F)F | 1.3335 ± 0.0016 | 1.3315 ± 0.0016 | 1.3305 ± 0.0016 | 1.329 ± 0.0016 | 1.3275 ± 0.0016 | 1.326 ± 0.0016 | 988.04 ± 2 kg/m3 | 981.56 ± 2 kg/m3 | 972.75 ± 2 kg/m3 |  |  |  |  |  |  |  |  | 
7 | O [water] + CCCCn1cc[n+](C)c1.F[B-](F)(F)F | 1.3335 ± 0.0016 | 1.3315 ± 0.0016 | 1.3305 ± 0.0016 | 1.329 ± 0.0016 | 1.3275 ± 0.0016 | 1.326 ± 0.0016 | 988.04 ± 2 kg/m3 | 981.56 ± 2 kg/m3 | 972.75 ± 2 kg/m3 |  |  |  |  |  |  |  |  | 
8 | O [water] + CCCCCCCCOS(=O)(=O)[O-].CCCCn1cc[n+](C)c1 | 1.3335 ± 0.0016 | 1.3315 ± 0.0016 | 1.3305 ± 0.0016 | 1.329 ± 0.0016 | 1.3275 ± 0.0016 | 1.326 ± 0.0016 | 988.04 ± 2 kg/m3 | 981.56 ± 2 kg/m3 | 972.75 ± 2 kg/m3 |  |  |  |  |  |  |  |  | 
